Like-named read-outs stand apart in the source and are kept apart here. Each block holds one compound with its values, some of them ahead of it.
Columns and labels:
[1] = cited from earlier work; for stability after gamma-irradiation: 60Co, 1 to 4 Mrad; for degradation degree: micronised steroids, radiation doses 4.5 and 15 Mrad
[2] = HPLC purity and related substances of micronised BDP after gamma-irradiation; assay type: physicochemical
Protocol: (§1) About 600 g of micronised BDP was stored in a 20 1 polythene container after having replaced air by nitrogen, the container was in turn sealed in two Polikem bag. The product was subjected to gamma-irradiation at 2 to 9 KGy. After the exposure, the BDP purity and the amount of related substances were determined by HPLC. On the batch subjected to 2 kGy dose, the particle size as well as the loss of weight were also determined by Malvern analysis and TGA respectively, in comparison to the non-irradiated product.

[3] = Particle size of micronised BDP powder by Malvern analysis; assay type: physicochemical
Protocol: as §1

[4] = Loss of weight by TGA of micronised BDP after gamma-irradiation; assay type: physicochemical
Protocol: as §1

- Particle size distribution (μm, Malvern) d (0.1) ([3]; gamma-irradiation 2 KGy): 0.48 μm
- Particle size distribution (μm, Malvern) d (0.5) ([3]; gamma-irradiation 2 KGy): 1.81 μm
- Particle size distribution (μm, Malvern) d (0.9) ([3]; gamma-irradiation 2 KGy): 5.73 μm
- Loss of weight (%, TGA) ([4]; gamma-irradiation 2 KGy): 0.13%
- Purity (%) ([2]; gamma-irradiation 2 KGy): 99.6%
- Related substances (%) ([2]; gamma-irradiation 2 KGy): 0.4%
- Purity (%) ([2]; gamma-irradiation 3.17 KGy): 99.6%
- Related substances (%) ([2]; gamma-irradiation 3.17 KGy): 0.4%
- Purity (%) ([2]; gamma-irradiation 9.08 KGy): 99.3%
- Related substances (%) ([2]; gamma-irradiation 9.08 KGy): 0.7%
Compound: CCC(=O)OCC(=O)[C@@]1(OC(=O)CC)[C@@H](C)C[C@H]2[C@@H]3CCC4=CC(=O)C=C[C@]4(C)[C@@]3(Cl)[C@@H](O)C[C@@]21C [Irr. BDP, beclomethasone dipropionate]

- Particle size distribution (μm, Malvern) d (0.1) ([3]; non-irradiated powder): 0.49 μm
- Particle size distribution (μm, Malvern) d (0.5) ([3]; non-irradiated powder): 1.91 μm
- Particle size distribution (μm, Malvern) d (0.9) ([3]; non-irradiated powder): 5.98 μm
- Loss of weight (%, TGA) ([4]; non-irradiated micronised powder): 0.12%
- Purity (%) ([2]; non-irradiated): 99.7%
- Related substances (%) ([2]; non-irradiated): 0.3%
Compound: CCC(=O)OCC(=O)[C@@]1(OC(=O)CC)[C@@H](C)C[C@H]2[C@@H]3CCC4=CC(=O)C=C[C@]4(C)[C@@]3(Cl)[C@@H](O)C[C@@]21C [Non-irr. BDP, beclomethasone dipropionate]

Further lines, the compound ahead of its results:

Compound: CCC(=O)OCC(=O)[C@@]1(OC(=O)CC)[C@@H](C)C[C@H]2[C@@H]3CCC4=CC(=O)C=C[C@]4(C)[C@@]3(Cl)[C@@H](O)C[C@@]21C [BDP, beclomethasone dipropionate]
- stability after gamma-irradiation ([1]; powder): stable immediately after irradiation
- stability after gamma-irradiation ([1]; solution in methanol or propylene glycol): quick degradation
- stability after exposure to gamma-irradiation ([2]; 2 to 9 KGy): stable

Compound: C[C@]12CCC(=O)C=C1CC[C@@H]1[C@@H]2[C@@H](O)C[C@@]2(C)[C@H]1CC[C@]2(O)C(=O)COC(=O)CCC(=O)O [hydrocortisone sodium succinate]
- percentage of degradation ([1]; powder corticosteroids sterilised with 60Co): 1.4 %/Mrad

Compound: C[C@]12CCC(=O)C=C1CC[C@@H]1[C@@H]2[C@@H](O)C[C@@]2(C)[C@H]1CC[C@]2(O)C(=O)CO [hydrocortisone]
- degradation degree [1]: about 2.4%

Compound: C[C@]12C=CC(=O)C=C1CC[C@@H]1[C@@H]2[C@@H](O)C[C@@]2(C)[C@H]1CC[C@]2(O)C(=O)CO [prednisolone]
- degradation degree [1]: about 2.4%

From patent US6464958B1, “Process for the preparation of suspensions of drug particles for inhalation delivery” (Chiesi Farmaceutici S.p.A., priority 1998, dated 2002)
